In US7858610B2, “Preventive and/or remedy for lower urinary tract diseases containing EP4 agonist” (Ono Pharmaceutical Co., Ltd., priority 2004, dated 2010):

Test system: model of cyclophosphamide-induced cystitis in rats
Experiment: Cystometry in the model of cyclophosphamide-induced cystitis in rats
Type: in vivo, rat
Details: for decrease of the bladder compliance induced by cyclophosphamide: bladder capacity divided by voiding pressure
Procedure: Female Wistar rats (around 9 weeks old) were anesthetized with sodium pentobarbital (40 mg/kg, i.p.). After median incision of the hypogastrium, the top of bladder was incised. A catheter for use in cystometry was filled with physiological saline and then was inserted through the top hole into bladder. The other end of the catheter was fixed subcutaneously in the dorsal part. 0.1 mL Vicillin S500 (Meiji Seika Kaisha, Ltd.; 100 mg titers/mL distilled water/rat) was injected into the buttock muscle. Then, the rats were fed for 6 days or more, and subsequently subjected to the following treatment.
The model of cyclophosphamide-induced cystitis was prepared by a single dose intraperitoneal administration of cyclophosphamide (Sigma; 150 mg/kg). Distilled water is administered intraperitoneally for the control group.
The test compound of each dose was administrated orally 30 minutes before the treatment of cyclophosphamide, and 4, 20, 30 and 45 hours after the treatment of cyclophosphamide. The solvent group (hereinafter, it may be referred to as vehicle.) was administrated distilled water which is the solvent of the test compound. The following cystometry was carried out 48 hours after the treatment of cyclophosphamide.
The rats anesthetized with diethyl ether were kept in ballman cage. The tip of the indwelling catheter for use in measurement of voiding pressure was connected through a three-way valve. Another end of the three-way valve was connected to a pressure transducer, while the other end was connected to a syringe for intravesical injection which was mounted on an infusion pump. A signal of voiding pressure was recorded using an amp recorder of strain pressure
After awaking from anesthesia, saline was injected into the bladder of the rats at a rate of 2.85 mL/h. After the pattern of the micturition reflex was stable, the residual urine was removed. Afterwards, saline was injected again into the bladder at a rate of 2.85 mL/h, and the voiding pressure and the urination interval were measured. The bladder capacity was calculated from the urination interval. The bladder compliance was calculated by dividing the bladder capacity by the voiding pressure.

[1] = 1000 μg/kg orally, cyclophosphamide-induced cystitis, female Wistar rats

Molecule | decrease of the bladder capacity induced by cyclophosphamide [1] | decrease of the bladder compliance induced by cyclophosphamide [1] | decrease of the bladder compliance induced by cyclophosphamide (300 μg/kg orally, 30 min before and 4, 20, 30 and 45 h after cyclophosphamide (150 mg/kg i.p.), cystometry 48 h after, FIG. 2) | decrease of the bladder capacity induced by cyclophosphamide (300 μg/kg orally, 30 min before and 4, 20, 30 and 45 h after cyclophosphamide (150 mg/kg i.p.), cystometry 48 h after, female Wistar rats, FIG. 1) | voiding pressure (oral administration, regardless of the presence of the cyclophosphamide treatment, FIG. 3)
methyl 4-{[2-((1R,2R,3R)-3-hydroxy-2-{(1E,3S)-3-hydroxy-4-[3-(methoxymethyl)phenyl]but-1-enyl}-5-oxocyclopenty)ethyl]sulfanyl}butanoate α-cyclodextrin clathrate [compound 2] | improved | improved |  |  | 
O=C(O)CCCSCCN1C(=O)CC[C@@H]1/C=C/[C@@H](O)Cc1ccc(F)cc1 [compound 1, 4-[(2-{(2R)-2-[(1E,3S)-4-(4-fluorophenyl)-3-hydroxybut-1-enyl]-5-oxopyrrolidin-1-yl}ethyl)sulfanyl]butanoic acid] |  |  | improved | improved | decreased
